# Earlier results, collected in patent US20070293700A1, “Process for the Preparation of Gabapentin” (Zambon Group S.P.A., priority 2004, published 2007).
# Where two headings read alike, the source gives them in different places.
# Key:
# [1] = pH at which the isoelectric point is reached
structure (smiles),measurement,setting,value
"NCC1(CC(=O)O)CCCCC1 [gabapentin, 1-(aminomethyl)-cyclohexaneacetic acid]",isoelectric point (pH),[1],7.14
same,solubility in water,0° C.,about 8.5%
same,solubility in water,temperature of 20° C.,~11%
